Measurements as given in ChEMBL document CHEMBL1132673, “Preparation and immunosuppressive activity of 32-(O)-acylated and 32-(O)-thioacylated analogues of ascomycin” (1999).

Legend:
[1] = In vitro immunosuppressive activity measured in the interleukin-2 receptor gene assay (IL-2 RGA) in mitogen-stimulated human T-cell line; relative to FK506
[2] = molecular target: Peptidyl-prolyl cis-trans isomerase FKBP1A (Homo sapiens) (UniProt P62942); assay: Immunosuppressive activity in FK506 binding protein 12 binding assay as inhibitory concentration (rIC50) relative to FK506 IC50 (1.2 nM)
Chain of Peptidyl-prolyl cis-trans isomerase FKBP1A (Homo sapiens) (P62942 whole entry): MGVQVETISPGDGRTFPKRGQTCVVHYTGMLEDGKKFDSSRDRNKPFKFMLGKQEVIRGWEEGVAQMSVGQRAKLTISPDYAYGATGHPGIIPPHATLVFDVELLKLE

[3] = species: Mus musculus; assay: In vitro immunosuppressive activity measured in the mouse mixed lymphocyte reaction (MLR) expressed as relative inhibitory concentration (rIC50) relative to FK506 IC50 (0.3 nM); assay type: functional

| SMILES | rIC50 [1] | rIC50 [2] | rIC50 [3] |
| --- | --- | --- | --- |
| CC[C@@H]1/C=C(\C)C[C@H](C)C[C@H](OC)[C@H]2O[C@@](O)(C(=O)C(=O)N3CCCC[C@H]3C(=O)O[C@H](/C(C)=C/[C@@H]3CC[C@@H](OC(=S)NC(=O)c4ccc(C(=O)OC)cc4)[C@H](OC)C3)[C@H](C)[C@@H](O)CC1=O)[C@H](C)C[C@@H]2OC | 9 | 7.3 | 8.4 |
| CC[C@@H]1/C=C(\C)C[C@H](C)C[C@H](OC)[C@H]2O[C@@](O)(C(=O)C(=O)N3CCCC[C@H]3C(=O)O[C@H](/C(C)=C/[C@@H]3CC[C@@H](OC(=S)NC(=O)C[C@@H]4OC(C)(C)OC4=O)[C@H](OC)C3)[C@H](C)[C@@H](O)CC1=O)[C@H](C)C[C@@H]2OC | 12 | 0.9 | 12 |
| CC[C@@H]1/C=C(\C)C[C@H](C)C[C@H](OC)[C@H]2O[C@@](O)(C(=O)C(=O)N3CCCC[C@H]3C(=O)O[C@H](/C(C)=C/[C@@H]3CC[C@@H](OC(=S)NC(=O)c4ccco4)[C@H](OC)C3)[C@H](C)[C@@H](O)CC1=O)[C@H](C)C[C@@H]2OC | 3.5 | 3.4 | 7.6 |
| C=CC[C@@H]1/C=C(\C)C[C@H](C)C[C@H](OC)[C@H]2O[C@@](O)(C(=O)C(=O)N3CCCC[C@H]3C(=O)O[C@H](/C(C)=C/[C@@H]3CC[C@@H](O)[C@H](OC)C3)[C@H](C)[C@@H](O)CC1=O)[C@H](C)C[C@@H]2OC [TACROLIMUS ANHYDROUS] | 1 | 1 | 1 |
| CC[C@@H]1/C=C(\C)C[C@H](C)C[C@H](OC)[C@H]2O[C@@](O)(C(=O)C(=O)N3CCCC[C@H]3C(=O)O[C@H](/C(C)=C/[C@@H]3CC[C@@H](O)[C@H](OC)C3)[C@H](C)[C@@H](O)CC1=O)[C@H](C)C[C@@H]2OC [ASCOMYCIN] | 1.7 | 0.9 | 1.9 |
| CC[C@@H]1/C=C(\C)C[C@H](C)C[C@H](OC)[C@H]2O[C@@](O)(C(=O)C(=O)N3CCCC[C@H]3C(=O)O[C@H](/C(C)=C/[C@@H]3CC[C@@H](OC(=S)N(C)C(=O)CCC(=O)OC)[C@H](OC)C3)[C@H](C)[C@@H](O)CC1=O)[C@H](C)C[C@@H]2OC | 6.9 | 2.7 | 36 |
| CC[C@@H]1/C=C(\C)C[C@H](C)C[C@H](OC)[C@H]2O[C@@](O)(C(=O)C(=O)N3CCCC[C@H]3C(=O)O[C@H](/C(C)=C/[C@@H]3CC[C@@H](OC(=S)NC(=O)CCC(=O)OC)[C@H](OC)C3)[C@H](C)[C@@H](O)CC1=O)[C@H](C)C[C@@H]2OC | 4.6 | 1.6 | 19 |

Second part, led by results:

| rIC50 [1] | rIC50 [2] | SMILES | rIC50 [3] |
| --- | --- | --- | --- |
| 1.2 | 1.3 | CC[C@@H]1/C=C(\C)C[C@H](C)C[C@H](OC)[C@H]2O[C@@](O)(C(=O)C(=O)N3CCCC[C@H]3C(=O)O[C@H](/C(C)=C/[C@@H]3CC[C@@H](OC(=O)NC(=O)c4ccccc4)[C@H](OC)C3)[C@H](C)[C@@H](O)CC1=O)[C@H](C)C[C@@H]2OC | 2.9 |
| 3.4 | 6.3 | CC[C@@H]1/C=C(\C)C[C@H](C)C[C@H](OC)[C@H]2O[C@@](O)(C(=O)C(=O)N3CCCC[C@H]3C(=O)O[C@H](/C(C)=C/[C@@H]3CC[C@@H](OC(=S)NC(=O)c4ccccc4)[C@H](OC)C3)[C@H](C)[C@@H](O)CC1=O)[C@H](C)C[C@@H]2OC | 11 |
| 6.5 | 6.6 | CC[C@@H]1/C=C(\C)C[C@H](C)C[C@H](OC)[C@H]2O[C@@](O)(C(=O)C(=O)N3CCCC[C@H]3C(=O)O[C@H](/C(C)=C/[C@@H]3CC[C@@H](OC(=S)NC(=O)c4ccc5ccccc5c4)[C@H](OC)C3)[C@H](C)[C@@H](O)CC1=O)[C@H](C)C[C@@H]2OC | 15 |
| 0.7 | 1.5 | CC[C@@H]1/C=C(\C)C[C@H](C)C[C@H](OC)[C@H]2O[C@@](O)(C(=O)C(=O)N3CCCC[C@H]3C(=O)O[C@H](/C(C)=C/[C@@H]3CC[C@@H](OC(=O)NNc4ccccc4)[C@H](OC)C3)[C@H](C)[C@@H](O)CC1=O)[C@H](C)C[C@@H]2OC | 2.5 |
